For this assay, the target named is T1, ITK (Homo sapiens, UniProt Q08881).
T1 construct: purchased Invitrogen PV3875
T1 sequence (Q08881 1-620): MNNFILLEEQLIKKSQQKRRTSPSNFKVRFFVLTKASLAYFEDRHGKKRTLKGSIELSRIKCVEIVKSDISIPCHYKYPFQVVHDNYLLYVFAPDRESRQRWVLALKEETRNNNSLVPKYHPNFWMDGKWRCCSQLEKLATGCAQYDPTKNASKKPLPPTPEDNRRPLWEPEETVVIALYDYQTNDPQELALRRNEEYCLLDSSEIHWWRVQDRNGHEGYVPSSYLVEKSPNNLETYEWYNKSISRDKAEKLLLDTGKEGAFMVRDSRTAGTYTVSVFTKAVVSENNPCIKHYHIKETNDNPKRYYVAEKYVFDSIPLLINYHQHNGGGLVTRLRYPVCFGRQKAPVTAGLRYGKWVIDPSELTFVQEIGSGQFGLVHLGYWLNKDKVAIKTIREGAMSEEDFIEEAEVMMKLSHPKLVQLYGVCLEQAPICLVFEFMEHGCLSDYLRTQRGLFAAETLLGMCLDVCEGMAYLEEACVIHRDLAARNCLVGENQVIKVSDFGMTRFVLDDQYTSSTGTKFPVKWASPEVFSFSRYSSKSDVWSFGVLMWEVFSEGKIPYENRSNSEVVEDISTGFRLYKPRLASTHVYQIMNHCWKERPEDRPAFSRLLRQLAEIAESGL
Description: ITK enzyme assay (Caliper or LCMS peptide phosphorylation). Type of assay: biochemical. To be noted: purified ITK (Invitrogen PV3875), 20 μM ATP, Ki by Morrison's quadratic equation. Put shortly:
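Purified human ITK peptide phosphorylation, quenched with EDTA (50 mM final) for Caliper LabChip separation or TCA (5% v/v final) for UPLC-MS/MS MRM quantification. Ki derived via Morrison tight-binding equation, corrected for competitive inhibition using ATP concentration relative to Km,app.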
As to `CC1(C)CCc2c(C(=O)Nc3cnn(C(c4ccccc4)C(C)(C)O)c3)n[nH]c2C1` (single isomer, unassigned) [Example 55b, N-(1-(2-hydroxy-2-methyl-1-phenylpropyl)-1H-pyrazol-4-yl)-6,6-dimethyl-4,5,6,7-tetrahydro-1H-indazole-3-carboxamide], the Ki (in general, a dissociation constant, usually derived from enzyme kinetics or from competition with a known ligand) was 18 nM. As for `CCC1(C)CCc2c(C(=O)Nc3cnn(Cc4ccccc4)c3)n[nH]c2C1` (single isomer, unassigned) [Example 56a, N-(1-benzyl-1H-pyrazol-4-yl)-6-ethyl-6-methyl-4,5,6,7-tetrahydro-1H-indazole-3-carboxamide], the figure is 9 nM; as for `CCC1(C)CCc2c(C(=O)Nc3cnn(Cc4ccccc4)c3)n[nH]c2C1` (single isomer, unassigned) [Example 56b, N-(1-benzyl-1H-pyrazol-4-yl)-6-ethyl-6-methyl-4,5,6,7-tetrahydro-1H-indazole-3-carboxamide], 13 nM; as for `CC1(C)CCc2c(C(=O)Nc3cnn(C(CN4CCC4)c4ccccc4)c3)n[nH]c2C1` (single isomer, unassigned) [Example 57a, N-(1-(2-(azetidin-1-yl)-1-phenylethyl)-1H-pyrazol-4-yl)-6,6-dimethyl-4,5,6,7-tetrahydro-1H-indazole-3-carboxamide], 2 nM.

For the molecule `CC1(C)CCc2c(C(=O)Nc3cnn(C(CN4CCC4)c4ccccc4)c3)n[nH]c2C1` (single isomer, unassigned) [Example 57b, N-(1-(2-(azetidin-1-yl)-1-phenylethyl)-1H-pyrazol-4-yl)-6,6-dimethyl-4,5,6,7-tetrahydro-1H-indazole-3-carboxamide], the Ki amounted to 12 nM. `CN(CCC(c1ccccc1)n1cc(NC(=O)c2n[nH]c3c2CCC(C)(C)C3)cn1)C1COC1` (single isomer, unassigned) [Example 58a, 6,6-dimethyl-N-(1-(3-(methyl(oxetan-3-yl)amino)-1-phenylpropyl)-1H-pyrazol-4-yl)-4,5,6,7-tetrahydro-1H-indazole-3-carboxamide] registered an inhibitory constant (Ki) of 7 nM. As for `CN(CCC(c1ccccc1)n1cc(NC(=O)c2n[nH]c3c2CCC(C)(C)C3)cn1)C1COC1` (single isomer, unassigned) [Example 58b, 6,6-dimethyl-N-(1-(3-(methyl(oxetan-3-yl)amino)-1-phenylpropyl)-1H-pyrazol-4-yl)-4,5,6,7-tetrahydro-1H-indazole-3-carboxamide], the figure is 0.6 nM; as for `CN(CC(c1ccccc1)n1cc(NC(=O)c2n[nH]c3c2CCC(C)(C)C3)cn1)S(C)(=O)=O` (single isomer, unassigned) [Example 61a, 6,6-dimethyl-N-(1-(2-(N-methylmethylsulfonamido)-1-phenylethyl)-1H-pyrazol-4-yl)-4,5,6,7-tetrahydro-1H-indazole-3-carboxamide], 5 nM.

For the molecule `CN(CC(c1ccccc1)n1cc(NC(=O)c2n[nH]c3c2CCC(C)(C)C3)cn1)S(C)(=O)=O` (single isomer, unassigned) [Example 61b, 6,6-dimethyl-N-(1-(2-(N-methylmethylsulfonamido)-1-phenylethyl)-1H-pyrazol-4-yl)-4,5,6,7-tetrahydro-1H-indazole-3-carboxamide], the Ki was 1 nM. Then `CC1(C)CCc2c(C(=O)Nc3cnn(C(CN4CCOCC4)c4ccccc4)c3)n[nH]c2C1` (single isomer, unassigned) [Example 62a, 6,6-dimethyl-N-(1-(2-morpholino-1-phenylethyl)-1H-pyrazol-4-yl)-4,5,6,7-tetrahydro-1H-indazole-3-carboxamide], with 3 nM; and `CC1(C)CCc2c(C(=O)Nc3cnn(C(CN4CCOCC4)c4ccccc4)c3)n[nH]c2C1` (single isomer, unassigned) [Example 62b, 6,6-dimethyl-N-(1-(2-morpholino-1-phenylethyl)-1H-pyrazol-4-yl)-4,5,6,7-tetrahydro-1H-indazole-3-carboxamide], with 16 nM.

The values are drawn from patent US20160326142A1, “PYRAZOLE CARBOXAMIDE COMPOUNDS, COMPOSITIONS AND METHODS OF USE” (Genentech, Inc., priority 2012, published 2016).
